Data: US10336761B2, “TGFβ receptor antagonist” (BRISTOL-MYERS SQUIBB COMPANY, priority 2015, dated 2019)

biological target: HIS-TGFβR1 T204D (Homo sapiens (Human), UniProt P36897, T204D); test: HTRF probe-displacement assay, HIS-TGFβR1 T204D; assay type: binding; conditions: 1 hour at room temperature
Sequence (P36897 34-503 T204D): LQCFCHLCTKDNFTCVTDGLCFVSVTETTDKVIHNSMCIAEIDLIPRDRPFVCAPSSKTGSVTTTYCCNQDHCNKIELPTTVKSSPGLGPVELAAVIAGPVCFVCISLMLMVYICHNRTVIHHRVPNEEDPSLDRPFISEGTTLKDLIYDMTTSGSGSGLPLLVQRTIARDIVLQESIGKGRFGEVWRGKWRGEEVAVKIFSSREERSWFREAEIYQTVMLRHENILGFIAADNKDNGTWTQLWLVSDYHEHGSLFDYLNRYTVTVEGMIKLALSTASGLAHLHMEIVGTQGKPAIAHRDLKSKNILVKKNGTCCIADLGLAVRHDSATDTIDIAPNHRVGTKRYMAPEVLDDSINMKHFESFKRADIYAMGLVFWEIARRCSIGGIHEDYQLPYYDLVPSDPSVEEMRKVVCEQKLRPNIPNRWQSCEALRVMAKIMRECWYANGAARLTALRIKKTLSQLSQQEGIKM

SMILES	IC50 [nM]
FC(F)c1cnccc1Nc1nc(-c2cccc(C(F)(F)F)n2)nn2cccc12 [Example 2, 3-(difluoromethyl)-N-{2-[6-(trifluoromethyl)pyridin-2-yl]pyrrolo[2,1-f][1,2,4]triazin-4-yl}pyridin-4-amine]	11
CC(O)CNCc1ccn2nc(-c3ccccn3)nc(Nc3ccncc3F)c12 (stereo not drawn) [Example 239, 1-[({4-[(3-fluoropyridin-4-yl)amino]-2-(pyridin-2-yl)pyrrolo[2,1-f][1,2,4]triazin-5-yl}methyl)amino]propan-2-ol]	1.2
O=C(N[C@@H]1CCCC[C@H]1O)c1cnccc1Nc1nc(-c2cccc(C(F)F)n2)nn2cccc12 [Example 180, 4-({2-[6-(difluoromethyl)pyridin-2-yl]pyrrolo[2,1-f][1,2,4]triazin-4-yl}amino)-N-[(1R,2R)-2-hydroxycyclohexyl]pyridine-3-carboxamide]	380
COc1cccc(-c2nc(Nc3ccncc3F)c3cc(CCN4CCN(C)CC4)cn3n2)n1 [Example 44, 3-fluoro-N-[2-(6-methoxypyridin-2-yl)-6-[2-(4-methylpiperazin-1-yl)ethyl]pyrrolo[2,1-f][1,2,4]triazin-4-yl]pyridin-4-amine]	1700
CS(=O)(=O)N(c1cc2c(Nc3ccncc3F)nc(-c3cccc(C(F)(F)F)n3)nn2c1)S(C)(=O)=O [Example 111, N-{4-[(3-fluoropyridin-4-yl)amino]-2-[6-(trifluoromethyl)pyridin-2-yl]pyrrolo[2,1-f][1,2,4]triazin-6-yl}-N-methanesulfonylmethanesulfonamide]	52
Cc1cccc(-c2nc(Nc3ccncc3C(=O)NCCN3CCCCC3)c3cccn3n2)n1 [Example 155, 4-{[2-(6-methylpyridin-2-yl)pyrrolo[2,1-f][1,2,4]triazin-4-yl]amino}-N-[2-(piperidin-1-yl)ethyl]pyridine-3-carboxamide]	6.8
Cc1cccc(-c2nc(Nc3ccncc3C(=O)NCCCN3CCS(=O)(=O)CC3)c3cccn3n2)n1 [Example 36, N-(3-(1,1-dioxidothiomorpholino)propyl)-4-((2-(6-methylpyridin-2-yl)pyrrolo[2,1-f][1,2,4]triazin-4-yl)amino)nicotinamide]	3
CC(C)NC(=O)c1cnccc1Nc1nc(-c2cccc(C(F)F)n2)nn2cccc12 [Example 194, 4-({2-[6-(difluoromethyl)pyridin-2-yl]pyrrolo[2,1-f][1,2,4]triazin-4-yl}amino)-N-(propan-2-yl)pyridine-3-carboxamide]	110
Cc1cccc(-c2nc(Nc3ccncc3C(=O)NC(C)(C)CO)c3cccn3n2)n1 [Example 157, N-(1-hydroxy-2-methylpropan-2-yl)-4-{[2-(6-methylpyridin-2-yl)pyrrolo[2,1-f][1,2,4]triazin-4-yl]amino}pyridine-3-carboxamide]	34
Cc1cccc(-c2nc(Nc3ccncc3C(=O)NCC3(O)CCN(C)CC3)c3cccn3n2)n1 [Example 154, N-[(4-hydroxy-1-methylpiperidin-4-yl)methyl]-4-{[2-(6-methylpyridin-2-yl)pyrrolo[2,1-f][1,2,4]triazin-4-yl]amino}pyridine-3-carboxamide]	33
CCCNC(=O)c1cnccc1Nc1nc(-c2cccc(C(F)F)n2)nn2cccc12 [Example 184, 4-({2-[6-(difluoromethyl)pyridin-2-yl]pyrrolo[2,1-f][1,2,4]triazin-4-yl}amino)-N-propylpyridine-3-carboxamide]	14
COc1cccc(-c2nc(Nc3ccncc3F)c3c(CNC[C@@H](F)C(C)(C)O)ccn3n2)n1 [Example 120, (3R)-3-fluoro-4-[({4-[(3-fluoropyridin-4-yl)amino]-2-(6-methoxypyridin-2-yl)pyrrolo[2,1-f][1,2,4]triazin-5-yl}methyl)amino]-2-methylbutan-2-ol]	98
FC(F)(F)c1cccc(-c2nc(Nc3ccnc(-c4cc[nH]n4)c3)c3cccn3n2)n1 [Example 230, 2-(1H-pyrazol-3-yl)-N-{2-[6-(trifluoromethyl)pyridin-2-yl]pyrrolo[2,1-f][1,2,4]triazin-4-yl}pyridin-4-amine]	100
Fc1cnccc1Nc1nc(-c2nc(C(F)(F)F)cs2)nn2cccc12 [Example 17, N-(3-fluoropyridin-4-yl)-2-(4-(trifluoromethyl)thiazol-2-yl)pyrrolo[2,1-f][1,2,4]triazin-4-amine]	0.72
O=C(NC1CCOC1)c1cnccc1Nc1nc(-c2cccc(C(F)F)n2)nn2cccc12 (stereo not drawn) [Example 177, 4-({2-[6-(difluoromethyl)pyridin-2-yl]pyrrolo[2,1-f][1,2,4]triazin-4-yl}amino)-N-(oxolan-3-yl)pyridine-3-carboxamide]	21
OC1(c2ccccc2)CCN(Cc2ccn3nc(-c4ccccn4)nc(Nc4ccncc4F)c23)CC1 [Example 277, 1-({4-[(3-fluoropyridin-4-yl)amino]-2-(pyridin-2-yl)pyrrolo[2,1-f][1,2,4]triazin-5-yl}methyl)-4-phenylpiperidin-4-ol]	1.5

Next, values leading:

IC50 [nM]	SMILES
0.27	CC1(NCc2ccn3nc(-c4ccccn4)nc(Nc4ccncc4F)c23)CCC1 [Example 241, 3-fluoro-N-(5-{[(1-methylcyclobutyl)amino]methyl}-2-(pyridin-2-yl)pyrrolo[2,1-f][1,2,4]triazin-4-yl)pyridin-4-amine]
3.6	Fc1cnccc1Nc1nc(-c2ccccn2)nn2ccc(CNCCC3CCCN3)c12 (stereo not drawn) [Example 270, 3-fluoro-N-[2-(pyridin-2-yl)-5-({[2-(pyrrolidin-2-yl)ethyl]amino}methyl)pyrrolo[2,1-f][1,2,4]triazin-4-yl]pyridin-4-amine]
0.49	Cc1cccc(-c2nc(Nc3ccncc3F)c3c(CN4CC[C@H](O)C4)ccn3n2)n1 [Example 252, (3S)-1-({4-[(3-fluoropyridin-4-yl)amino]-2-(6-methylpyridin-2-yl)pyrrolo[2,1-f][1,2,4]triazin-5-yl}methyl)pyrrolidin-3-ol]
3.3	CC(=O)Nc1cc(Nc2nc(-c3cccc(F)n3)nn3cccc23)c(F)cn1 [Example 339, N-(5-fluoro-4-{[2-(6-fluoropyridin-2-yl)pyrrolo[2,1-f][1,2,4]triazin-4-yl]amino}pyridin-2-yl)acetamide]
1	CN(C)C1CCC(NCc2ccn3nc(-c4ccccn4)nc(Nc4ccncc4F)c23)CC1 (stereo not drawn) [Example 245, 4-N-({4-[(3-fluoropyridin-4-yl)amino]-2-(pyridin-2-yl)pyrrolo[2,1-f][1,2,4]triazin-5-yl}methyl)-1-N, 1-N-dimethylcyclohexane-1,4-diamine]
1.6	Fc1cnccc1Nc1nc(-c2ccccn2)nn2ccc(CN3CCN(c4ncccn4)CC3)c12 [Example 276, 3-fluoro-N-[2-(pyridin-2-yl)-5-{[4-(pyrimidin-2-yl)piperazin-1-yl]methyl}pyrrolo[2,1-f][1,2,4]triazin-4-yl]pyridin-4-amine]
13	Fc1cnccc1Nc1nc(-c2ccccn2)nn2ccc(CNC3CNC3)c12 [Example 311, N-(5-{[(azetidin-3-yl)amino]methyl}-2-(pyridin-2-yl)pyrrolo[2,1-f][1,2,4]triazin-4-yl)-3-fluoropyridin-4-amine]
1.2	OCCN1CCN(Cc2ccn3nc(-c4cccc(C(F)F)n4)nc(Nc4ccncc4F)c23)CC1 [Example 253, 2-[4-({2-[6-(difluoromethyl)pyridin-2-yl]-4-[(3-fluoropyridin-4-yl)amino]pyrrolo[2,1-f][1,2,4]triazin-5-yl}methyl)piperazin-1-yl]ethan-1-ol]
2.6	O=C(CN1CCOCC1)Nc1cc(Nc2nc(-c3cccc(C(F)(F)F)n3)nn3cccc23)ccn1 [Example 331, 2-(morpholin-4-yl)-N-[4-({2-[6-(trifluoromethyl)pyridin-2-yl]pyrrolo[2,1-f][1,2,4]triazin-4-yl}amino)pyridin-2-yl]acetamide]
1.6	Fc1cnccc1Nc1nc(-c2ccccn2)nn2ccc(CNCCCn3ccnc3)c12 [Example 281, 3-fluoro-N-[5-({[3-(1H-imidazol-1-yl)propyl]amino}methyl)-2-(pyridin-2-yl)pyrrolo[2,1-f][1,2,4]triazin-4-yl]pyridin-4-amine]
12	CN1CCC(N(C)Cc2ccn3nc(-c4ccccn4)nc(Nc4ccncc4F)c23)CC1 [Example 279, 3-fluoro-N-(5-{[methyl(1-methylpiperidin-4-yl)amino]methyl}-2-(pyridin-2-yl)pyrrolo[2,1-f][1,2,4]triazin-4-yl)pyridin-4-amine]
1.7	OCC(CO)NCc1ccn2nc(-c3ccccn3)nc(Nc3ccncc3F)c12 [Example 264, 2-[({4-[(3-fluoropyridin-4-yl)amino]-2-(pyridin-2-yl)pyrrolo[2,1-f][1,2,4]triazin-5-yl}methyl)amino]propane-1,3-diol]
0.6	CC(C)(O)CNCC(=O)Nc1cc(Nc2nc(-c3cccc(C(F)(F)F)n3)nn3cccc23)ccn1 [Example 330, 2-[(2-hydroxy-2-methylpropyl)amino]-N-[4-({2-[6-(trifluoromethyl)pyridin-2-yl]pyrrolo[2,1-f][1,2,4]triazin-4-yl}amino)pyridin-2-yl]acetamide]
0.86	CC(=O)Nc1cc(Nc2nc(-c3cccc(F)n3)nn3cccc23)ccn1 [Example 291, N-(4-{[2-(6-fluoropyridin-2-yl)pyrrolo[2,1-f][1,2,4]triazin-4-yl]amino}pyridin-2-yl)acetamide]
3.2	Fc1cnccc1Nc1nc(-c2ncccc2F)nn2cccc12 [Example 260, 3-fluoro-N-[2-(3-fluoropyridin-2-yl)pyrrolo[2,1-f][1,2,4]triazin-4-yl]pyridin-4-amine]
1	CN1CCN(CC(=O)Nc2cc(Nc3nc(-c4cccc(C(F)(F)F)n4)nn4cccc34)ccn2)CC1 [Example 316, 2-(4-methylpiperazin-1-yl)-N-[4-({2-[6-(trifluoromethyl)pyridin-2-yl]pyrrolo[2,1-f][1,2,4]triazin-4-yl}amino)pyridin-2-yl]acetamide]
3000	Fc1ccc(-c2nc(Nc3cc(Cl)ncc3F)c3cccn3n2)nc1 [Example 317, 2-chloro-5-fluoro-N-[2-(5-fluoropyridin-2-yl)pyrrolo[2,1-f][1,2,4]triazin-4-yl]pyridin-4-amine]
